The values that follow come from US9777005B2 (Takeda Pharmaceutical Company Limited, priority 2012, dated 2017).

This assay concerns the target T1, human M1 receptor (hCHRM1) (Homo sapiens, UniProt P11229).
T1 construct: expressed in transfected cells; host or cells: CHO-K1
T1 sequence (P11229 1-460): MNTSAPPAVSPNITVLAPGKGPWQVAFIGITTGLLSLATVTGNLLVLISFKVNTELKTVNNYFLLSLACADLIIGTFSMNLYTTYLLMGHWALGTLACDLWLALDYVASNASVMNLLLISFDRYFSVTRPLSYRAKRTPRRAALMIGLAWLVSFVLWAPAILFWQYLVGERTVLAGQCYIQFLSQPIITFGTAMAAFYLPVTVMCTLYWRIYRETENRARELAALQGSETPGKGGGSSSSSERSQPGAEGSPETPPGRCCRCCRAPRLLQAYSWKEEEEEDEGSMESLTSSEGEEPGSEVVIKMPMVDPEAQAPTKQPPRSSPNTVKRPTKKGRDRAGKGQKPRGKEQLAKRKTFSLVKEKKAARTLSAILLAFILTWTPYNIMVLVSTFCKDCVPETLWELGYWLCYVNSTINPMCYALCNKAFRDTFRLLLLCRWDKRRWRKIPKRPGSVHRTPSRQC
Kind of assay: Measurement of M1 receptor positive allosteric modulator (M1PAM) activity, calcium fluorescence (FLIPRtetra) in CHO-K1 cells in the presence of acetylcholine at EC20. Format: cell-based. As to conditions: in the presence of acetylcholine at EC20 (final 0.6 nM), CHO-K1 cells expressing hCHRM1; for EC50: inflection point of M1PAM activity, read-out: IP value; for activity (%) at 10 μM: test compound 10 μM. The gist of the method: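 CHO-K1 cells expressing human M1 were loaded with Fluo-4 AM, and compound was added with acetylcholine at EC20 (final 0.6 nM). Calcium fluorescence was read on FLIPRtetra for 1 min. Activity was normalized to 1 μM acetylcholine (100%) and DMSO (0%), and the curve inflection point was reported as IP.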

As for `Cn1ccc(-c2ccc(CN3Cc4cccc(O[C@@H]5COCC[C@H]5O)c4C3=O)cc2)n1` [Example 273, 1,5-anhydro-2-deoxy-4-O-(2-(4-(1-methyl-1H-pyrazol-3-yl)benzyl)-3-oxo-2,3-dihydro-1H-isoindol-4-yl)-threo-pentitol], the EC50 came out at 8.5 nM and the “activity (%) at 10 μM” value came to 103%.
For `Cc1nn(C)cc1-c1ccc(CN2Cc3ccnc(Oc4c(F)cccc4Cl)c3C2=O)c(F)c1` [Example 280, 4-(2-chloro-6-fluorophenoxy)-2-(4-(1,3-dimethyl-1H-pyrazol-4-yl)-2-fluorobenzyl)-1,2-dihydro-3H-pyrrolo[3,4-c]pyridin-3-one] the same measures were 26 nM and 110%.
For `Cc1nn(C)cc1-c1ccc(CN2Cc3ccnc(Oc4c(F)cccc4Cl)c3C2=O)cc1` [Example 281, 4-(2-chloro-6-fluorophenoxy)-2-(4-(1,3-dimethyl-1H-pyrazol-4-yl)benzyl)-1,2-dihydro-3H-pyrrolo[3,4-c]pyridin-3-one], the EC50 turned out to be 65 nM and the “activity (%) at 10 μM” value is recorded as 108%.
Consider `COc1ccc(F)c(Oc2nccc3c2C(=O)N(Cc2ccc(-c4cn(C)nc4C)cc2F)C3)c1F` [Example 283, 4-(2,6-difluoro-3-methoxyphenoxy)-2-(4-(1,3-dimethyl-1H-pyrazol-4-yl)-2-fluorobenzyl)-1,2-dihydro-3H-pyrrolo[3,4-c]pyridin-3-one], for which the EC50 came to 10 nM and the “activity (%) at 10 μM” value is 97%.
For `O=C1c2c(ccnc2OCC2CCCO2)CN1Cc1ccc(Br)cc1` (stereo not shown) [Example 284, 2-(4-bromobenzyl)-4-((tetrahydrofuran-2-yl)methoxy)-1,2-dihydro-3H-pyrrolo[3,4-c]pyridin-3-one], the EC50 worked out at 340 nM and the “activity (%) at 10 μM” value was found to be 94%.
On to `Cn1cc(-c2ccc(CN3Cc4ccnc(OCC5CCCO5)c4C3=O)cc2)cn1` (stereo not shown) [Example 285], for which the EC50 was determined as 10 nM and the “activity (%) at 10 μM” value is 95%.
The matching figures for `O=C1c2c(ccnc2OCC2CCCO2)CN1Cc1ccc(-c2cn[nH]c2)cc1` (stereo not shown) [Example 286, 2-(4-(1H-pyrazol-4-yl)benzyl)-4-((tetrahydrofuran-2-yl)methoxy)-1,2-dihydro-3H-pyrrolo[3,4-c]pyridin-3-one]: 13 nM and 99%.
For `O=C1c2c(ccnc2OCC2CCCO2)CN1Cc1ccc(-c2cnn(CC(F)(F)F)c2)cc1` (stereo not shown) [Example 287, 4-((tetrahydrofuran-2-yl)methoxy)-2-(4-(1-(2,2,2-trifluoroethyl)-1H-pyrazol-4-yl)benzyl)-1,2-dihydro-3H-pyrrolo[3,4-c]pyridin-3-one] the same measures were 10 nM and 99%.
Regarding `O=C1c2c(ccnc2OCC2CCCO2)CN1Cc1ccc(-c2cnn(CC3CC3)c2)cc1` (stereo not shown) [Example 288, 2-(4-(1-(cyclopropylmethyl)-1H-pyrazol-4-yl)benzyl)-4-((tetrahydrofuran-2-yl)methoxy)-1,2-dihydro-3H-pyrrolo[3,4-c]pyridin-3-one], the EC50 was determined as 12 nM and the “activity (%) at 10 μM” value turned out to be 103%.
For `O=C1c2c(ccnc2OCC2CCCO2)CN1Cc1ccc(-c2cnn3ccccc23)cc1` (stereo not shown) [Example 289, 2-(4-(pyrazolo[1,5-a]pyridin-3-yl)benzyl)-4-((tetrahydrofuran-2-yl)methoxy)-1,2-dihydro-3H-pyrrolo[3,4-c]pyridin-3-one] the same measures were 4.7 nM and 89%.
Take `Cc1cc(-c2ccc(CN3Cc4ccnc(Oc5cc(CO)ccc5F)c4C3=O)cc2)ccn1` [Example 290, 4-(2-fluoro-5-(hydroxymethyl)phenoxy)-2-(4-(2-methylpyridin-4-yl)benzyl)-1,2-dihydro-3H-pyrrolo[3,4-c]pyridin-3-one]: the EC50 is 44 nM and the “activity (%) at 10 μM” value was found to be 91%.
